Measurements published in article PMC10318143, “Optimized bisubstrate inhibitors for the actin N-terminal acetyltransferase NAA80” (Frontiers in Chemistry, 2023).
*1 amine or outer side, *2 acyl side, *3 side chain or, on linkers, in order; H or OH if unused. Where a SMILES comes first, the peptide text is derived from it. [ ]: non-standard residue; d: D form. The star is where a group is joined. Pantoyl(4-O-3'-P-ADP) = CC(C)(COP(=O)(O)OP(=O)(O)OC[C@H]1O[C@@H](n2cnc3c(N)ncnc32)[C@H](O)[C@@H]1OP(=O)(O)O)[C@@H](O)C(=O)*; NHCH2CH2SCH2CO = O=C(CSCCN[*:1])[*:2]; βAla = NCCC(=O)O

Target: T1, MBP-hNAA80 (Homo sapiens, UniProt Q93015)
T1 construct: made in house; host or cells: Escherichia coli BL21 star
T1 sequence (Q93015 1-286): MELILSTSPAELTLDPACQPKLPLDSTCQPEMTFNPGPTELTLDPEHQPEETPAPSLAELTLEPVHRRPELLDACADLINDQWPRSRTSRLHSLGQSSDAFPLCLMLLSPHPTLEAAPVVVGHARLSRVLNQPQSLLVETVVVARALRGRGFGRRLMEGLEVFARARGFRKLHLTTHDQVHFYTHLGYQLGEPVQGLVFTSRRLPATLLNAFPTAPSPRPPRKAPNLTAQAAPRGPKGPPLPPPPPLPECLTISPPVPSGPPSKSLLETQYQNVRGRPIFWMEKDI
Experiment: In vitro DTNB Nt-acetyltransferase inhibitor assay
Assay type: biochemical
Conditions: 300 μM Ac-CoA, 300 μM substrate peptide, Tris pH 8.5, triplicates, ± standard deviation
Experimental: The enzymatic activity of MBP-hNAA80 was measured using a 5,5′-dithiobis-(2-nitrobenzoic acid, DTNB) assay as described previously by Foyn et al. ([Foyn et al., 2017]) and Drazic et al. ([Drazic et al., 2018]) Briefly, the thiol group exposed in the enzymatic product CoA cleaves DTNB and produces 2-nitro-5-thiobenzonate (TNB^−) which ionize to TNB^2- in neutral or alkaline pH and is readily quantified by measuring the absorbance at 412 nm.
An in vitro DTNB assay with enzyme (10–600 nM), 300 μM Ac-CoA, 300 μM substrate peptide, acetylation buffer (Tris, pH 8.5), and at least nine different inhibitor concentrations ranging from 0 to 500 μM was used to calculate the IC50 value for each bisubstrate inhibitor applied in the assay. The reaction was carried out as previously described ([Drazic et al., 2018]; [Goris et al., 2018]), and within a timeframe of 15–50 min. All measurements were performed in triplicates.
`CC[C@H](C)[C@H](NC(=O)[C@H](CCC(=O)O)NC(=O)[C@H](CC(=O)O)NC(=O)[C@H](CC(=O)O)NC(=O)CSCCNC(=O)CCNC(=O)[C@H](O)C(C)(C)COP(=O)(O)OP(=O)(O)OC[C@H]1O[C@@H](n2cnc3c(N)ncnc32)[C@H](O)[C@@H]1OP(=O)(O)O)C(N)=O` [CoA-DDEI-NH2, CoA-Ac-DDEI-NH2] ({Pantoyl(4-O-3'-P-ADP)-βAla}-[NHCH2CH2SCH2CO]DDEI-NH2) showed an IC50 of 2670 ± 670 nM.
Work on `CC[C@H](C)[C@H](NC(=O)[C@H](CCC(=O)O)NC(=O)[C@H](CCC(=O)O)NC(=O)[C@H](CC(=O)O)NC(=O)CSCCNC(=O)CCNC(=O)[C@H](O)C(C)(C)COP(=O)(O)OP(=O)(O)OC[C@H]1O[C@@H](n2cnc3c(N)ncnc32)[C@H](O)[C@@H]1OP(=O)(O)O)C(N)=O` [CoA-DEEI-NH2, CoA-Ac-DEEI-NH2] ({Pantoyl(4-O-3'-P-ADP)-βAla}-[NHCH2CH2SCH2CO]DEEI-NH2) yielded an IC50 of 1220 ± 330 nM.
`CC(C)C[C@H](NC(=O)[C@H](CCC(=O)O)NC(=O)[C@H](CCC(=O)O)NC(=O)[C@H](CC(=O)O)NC(=O)CSCCNC(=O)CCNC(=O)[C@H](O)C(C)(C)COP(=O)(O)OP(=O)(O)OC[C@H]1O[C@@H](n2cnc3c(N)ncnc32)[C@H](O)[C@@H]1OP(=O)(O)O)C(N)=O` [CoA-DEEL-NH2, CoA-Ac-DEEL-NH2] ({Pantoyl(4-O-3'-P-ADP)-βAla}-[NHCH2CH2SCH2CO]DEEL-NH2) showed an IC50 of 4730 ± 1430 nM.
For `CC[C@H](C)[C@H](NC(=O)[C@H](CC(=O)O)NC(=O)[C@H](CC(=O)O)NC(=O)[C@H](CCC(=O)O)NC(=O)CSCCNC(=O)CCNC(=O)[C@H](O)C(C)(C)COP(=O)(O)OP(=O)(O)OC[C@H]1O[C@@H](n2cnc3c(N)ncnc32)[C@H](O)[C@@H]1OP(=O)(O)O)C(N)=O` [CoA-EDDI-NH2, CoA-Ac-EDDI-NH2] ({Pantoyl(4-O-3'-P-ADP)-βAla}-[NHCH2CH2SCH2CO]EDDI-NH2), the IC50 was 120 ± 50 nM.
Molecule `CC[C@H](C)[C@H](NC(=O)[C@H](CCC(=O)O)NC(=O)[C@H](CC(=O)O)NC(=O)[C@H](CCC(=O)O)NC(=O)CSCCNC(=O)CCNC(=O)[C@H](O)C(C)(C)COP(=O)(O)OP(=O)(O)OC[C@H]1O[C@@H](n2cnc3c(N)ncnc32)[C@H](O)[C@@H]1OP(=O)(O)O)C(N)=O` [CoA-EDEI-NH2, CoA-Ac-EDEI-NH2] ({Pantoyl(4-O-3'-P-ADP)-βAla}-[NHCH2CH2SCH2CO]EDEI-NH2) has an IC50 of 760 ± 180 nM.
Molecule `CC(C)C[C@H](NC(=O)[C@H](CCC(=O)O)NC(=O)[C@H](CC(=O)O)NC(=O)[C@H](CCC(=O)O)NC(=O)CSCCNC(=O)CCNC(=O)[C@H](O)C(C)(C)COP(=O)(O)OP(=O)(O)OC[C@H]1O[C@@H](n2cnc3c(N)ncnc32)[C@H](O)[C@@H]1OP(=O)(O)O)C(N)=O` [CoA-EDEL-NH2, CoA-Ac-EDEL-NH2] ({Pantoyl(4-O-3'-P-ADP)-βAla}-[NHCH2CH2SCH2CO]EDEL-NH2) has an IC50 of 150 ± 20 nM.
Work on `CC(C)C[C@H](NC(=O)[C@H](CCC(N)=O)NC(=O)[C@H](CC(=O)O)NC(=O)[C@H](CCC(=O)O)NC(=O)CSCCNC(=O)CCNC(=O)[C@H](O)C(C)(C)COP(=O)(O)OP(=O)(O)OC[C@H]1O[C@@H](n2cnc3c(N)ncnc32)[C@H](O)[C@@H]1OP(=O)(O)O)C(N)=O` [CoA-EDQL-NH2, CoA-Ac-EDQL-NH2] ({Pantoyl(4-O-3'-P-ADP)-βAla}-[NHCH2CH2SCH2CO]EDQL-NH2) yielded an IC50 of 850 ± 50 nM.
In the case of `CC[C@H](C)[C@H](NC(=O)[C@H](CC(=O)O)NC(=O)[C@H](CCC(=O)O)NC(=O)[C@H](CCC(=O)O)NC(=O)CSCCNC(=O)CCNC(=O)[C@H](O)C(C)(C)COP(=O)(O)OP(=O)(O)OC[C@H]1O[C@@H](n2cnc3c(N)ncnc32)[C@H](O)[C@@H]1OP(=O)(O)O)C(N)=O` [CoA-EEDI-NH2, CoA-Ac-EEDI-NH2] ({Pantoyl(4-O-3'-P-ADP)-βAla}-[NHCH2CH2SCH2CO]EEDI-NH2), the IC50 is reported as 170 ± 40 nM.
For `CC(C)C[C@H](NC(=O)[C@H](CC(=O)O)NC(=O)[C@H](CCC(=O)O)NC(=O)[C@H](CCC(=O)O)NC(=O)CSCCNC(=O)CCNC(=O)[C@H](O)C(C)(C)COP(=O)(O)OP(=O)(O)OC[C@H]1O[C@@H](n2cnc3c(N)ncnc32)[C@H](O)[C@@H]1OP(=O)(O)O)C(N)=O` [CoA-EEDL-NH2, CoA-Ac-EEDL-NH2] ({Pantoyl(4-O-3'-P-ADP)-βAla}-[NHCH2CH2SCH2CO]EEDL-NH2), the IC50 was 1760 ± 520 nM.
Molecule `CC(C)C[C@H](NC(=O)[C@H](CCC(=O)O)NC(=O)[C@H](CCC(=O)O)NC(=O)[C@H](CCC(=O)O)NC(=O)CSCCNC(=O)CCNC(=O)[C@H](O)C(C)(C)COP(=O)(O)OP(=O)(O)OC[C@H]1O[C@@H](n2cnc3c(N)ncnc32)[C@H](O)[C@@H]1OP(=O)(O)O)C(N)=O` [CoA-EEEL-NH2, CoA-Ac-EEEL-NH2] ({Pantoyl(4-O-3'-P-ADP)-βAla}-[NHCH2CH2SCH2CO]EEEL-NH2) has an IC50 of 1160 ± 120 nM.
Work on `CC(C)C[C@H](NC(=O)[C@H](CCC(=O)O)NC(=O)[C@H](CO)NC(=O)[C@H](CCC(=O)O)NC(=O)CSCCNC(=O)CCNC(=O)[C@H](O)C(C)(C)COP(=O)(O)OP(=O)(O)OC[C@H]1O[C@@H](n2cnc3c(N)ncnc32)[C@H](O)[C@@H]1OP(=O)(O)O)C(N)=O` [CoA-ESEL-NH2, CoA-Ac-ESEL-NH2] ({Pantoyl(4-O-3'-P-ADP)-βAla}-[NHCH2CH2SCH2CO]ESEL-NH2) yielded an IC50 of 11500 ± 3230 nM.
`CC(C)C[C@H](NC(=O)[C@H](CCC(=O)O)NC(=O)[C@H](CC(=O)O)NC(=O)[C@@H]1CCCN1C(=O)CSCCNC(=O)CCNC(=O)[C@H](O)C(C)(C)COP(=O)(O)OP(=O)(O)OC[C@H]1O[C@@H](n2cnc3c(N)ncnc32)[C@H](O)[C@@H]1OP(=O)(O)O)C(N)=O` [CoA-PDEL-NH2, CoA-Ac-PDEL-NH2] ({Pantoyl(4-O-3'-P-ADP)-βAla}-[NHCH2CH2SCH2CO]PDEL-NH2) showed an IC50 of 13400 ± 2240 nM.

Target: T1, MBP-hNAA80
Experiment: not given
Design: method as in Goris et al., 2018
Conditions: DTNB assay; ± standard deviation; ref Goris et al., 2018; cited from earlier work
For `CC[C@H](C)[C@H](NC(=O)[C@H](CC(=O)O)NC(=O)[C@H](CC(=O)O)NC(=O)[C@H](CC(=O)O)NC(=O)CSCCNC(=O)CCNC(=O)[C@H](O)C(C)(C)COP(=O)(O)OP(=O)(O)OC[C@H]1O[C@@H](n2cnc3c(N)ncnc32)[C@H](O)[C@@H]1OP(=O)(O)O)C(N)=O` [CoA-DDDI-NH2, CoA-Ac-DDDI-NH2] ({Pantoyl(4-O-3'-P-ADP)-βAla}-[NHCH2CH2SCH2CO]DDDI-NH2), the IC50 is given as 380 ± 100 nM.
In the case of “CoA-EEEI-NH2: previously reported bisubstrate inhibitor: coenzyme A conjugated via acetyl linker to tetrapeptide amide EEEI (γ-actin N-terminus) (not fully specified; N-terminal amine acylated with acetyl linker thioether-bonded to coenzyme A sulfur (CoA-S-CH2-CO-); C-terminal amide)”, the IC50 is given as 1160 ± 110 nM.
In the case of “CoA-MDEL-NH2: previously reported bisubstrate inhibitor: coenzyme A conjugated via acetyl linker to tetrapeptide amide MDEL (not fully specified; N-terminal amine acylated with acetyl linker thioether-bonded to coenzyme A sulfur (CoA-S-CH2-CO-); C-terminal amide)”, the IC50 is listed as 1260 ± 100 nM.
